PubChem BioAssay (NCI)
“And” between values parts separate entries of the source, which are not always exact repeats. Equal entries are not always repeated.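 Step 1: Grow cells in 96-well plates. Step 2: Expose to compound for 48 hours at 5 concentrations. Step 3: Interpolate endpoints linearly; if unreached, use highest concentration. Abbreviation: GI50, concentration required for 50% inhibition of growth. Definition used: TGI = concentration required for complete inhibition of growth.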

Key:
Assay in all cases: NCI tumour cell line growth inhibition, 48 h
[1] = test system: MOLT-4 leukemia
[2] = test system: RPMI-8226 leukemia
[3] = test system: HT29 colon
[4] = test system: MALME-3M melanoma
[5] = test system: UO-31 renal
[6] = test system: IGROV1 ovarian
[7] = test system: TK-10 renal
[8] = test system: SW-620 colon
[9] = test system: ACHN renal
[10] = test system: LOX IMVI melanoma
[11] = test system: CCRF-CEM leukemia
[12] = test system: UACC-257 melanoma
[13] = test system: HCT-15 colon
[14] = test system: HCT-116 colon
[15] = test system: NCI-H23 lung
[16] = test system: 786-0 renal
[17] = test system: NCI-H460 lung
[18] = test system: DMS 273 small cell lung
[19] = test system: SNB-75 CNS
[20] = test system: DLD-1 colon
[21] = test system: SK-MEL-28 melanoma
[22] = test system: HOP-62 NSCLC
[23] = test system: OVCAR-3 ovarian
[24] = test system: SK-MEL-2 melanoma
[25] = test system: EKVX NSCLC
[26] = test system: SK-OV-3 ovarian
[27] = test system: NCI-H226 lung
[28] = test system: KM12 colon
[29] = test system: UACC-62 melanoma
[30] = test system: NCI-H522 lung
[31] = test system: K-562 leukemia
[32] = test system: SF-295 CNS
[33] = test system: U251 CNS
[34] = test system: DMS 114 small cell lung
[35] = test system: HOP-18 NSCLC
[36] = test system: SNB-19 CNS
[37] = test system: OVCAR-8 ovarian
[38] = test system: RXF 393 renal
[39] = test system: SN12C renal
[40] = test system: M14 melanoma
[41] = test system: A549 NSCLC
[42] = test system: SF-539 CNS
[43] = test system: COLO 205 colon
[44] = test system: CAKI-1 renal
[45] = test system: MDA-MB-231 breast
[46] = test system: BT-549 breast
[47] = test system: HS 578T breast
[48] = test system: HCC-2998 colon
[49] = test system: SNB-78 CNS
[50] = test system: OVCAR-5 ovarian
[51] = test system: T-47D breast
[52] = test system: PC-3 prostate
[53] = test system: MDA-N
[54] = test system: DU-145 prostate

O=C1[C@H]2C(c3ccccc3)=NN(C(=O)c3ccccc3)[C@H]2C(=O)N1c1ccccc1
TGI [1]: > 100 µM | TGI [2]: > 100 µM | TGI [3]: > 100 µM | TGI [4]: > 100 µM | TGI [5]: > 100 µM | TGI [6]: > 100 µM | TGI [7]: > 100 µM | TGI [8]: > 100 µM | TGI [9]: > 100 µM | TGI [10]: > 100 µM | TGI [11]: > 100 µM | TGI [12]: > 100 µM | TGI [13]: > 100 µM | TGI [14]: > 100 µM | TGI [15]: > 100 µM | TGI [16]: > 100 µM | TGI [17]: > 100 µM | TGI [18]: > 100 µM | TGI [19]: > 100 µM | TGI [20]: > 100 µM | TGI [21]: > 100 µM | TGI [22]: > 100 µM | TGI [23]: > 100 µM | TGI [24]: > 100 µM | TGI [25]: > 100 µM | TGI [26]: > 100 µM | TGI [27]: > 100 µM | TGI [28]: > 100 µM | TGI [29]: > 100 µM | TGI [30]: > 100 µM | TGI [31]: > 100 µM | TGI [32]: > 100 µM | TGI [33]: > 100 µM | TGI [34]: > 100 µM | TGI [35]: > 100 µM | TGI [36]: > 100 µM | TGI [37]: > 100 µM | TGI [38]: > 100 µM | TGI [39]: > 100 µM | TGI [40]: > 100 µM | TGI [41]: > 100 µM | TGI [42]: > 100 µM | TGI [43]: > 100 µM

COc1ccc(/C=C\c2cc(OC)c(OC)c(OC)c2)cc1OP(=O)(O)O
TGI [1]: > 100 µM and 50 µM | TGI [2]: 25.1 µM and 50 µM and > 100 µM | TGI [44]: > 67.5 µM and 50 µM and > 100 µM | GI50 [3]: 0.486 µM and 3.89 µM | TGI [45]: > 12.1 µM | TGI [4]: > 100 µM and 24.5 µM and > 89 µM | TGI [6]: > 100 µM and 50 µM | TGI [7]: > 100 µM | TGI [8]: > 100 µM and 50 µM | TGI [9]: > 100 µM and 50 µM and > 65 µM | TGI [46]: > 100 µM | TGI [11]: > 100 µM | GI50 [47]: 13.2 µM | TGI [12]: 88.9 µM and 50 µM and > 100 µM | TGI [16]: > 100 µM | GI50 [48]: 0.929 µM | TGI [19]: 50 µM and > 100 µM | TGI [20]: > 100 µM and 50 µM | TGI [21]: > 100 µM and 50 µM | GI50 [22]: 11.9 µM | TGI [22]: > 100 µM and 50 µM and > 76.1 µM | TGI [24]: 0.0169 µM and 0.0953 µM | TGI [25]: > 100 µM and 50 µM | TGI [49]: > 100 µM and 50 µM | TGI [50]: > 100 µM | TGI [29]: > 100 µM and 50 µM and > 64.3 µM | GI50 [51]: 20.7 µM | TGI [52]: > 100 µM | TGI [31]: 50 µM and > 100 µM | GI50 [53]: < 0.0001 µM | GI50 [35]: > 100 µM | TGI [35]: > 100 µM | TGI [36]: > 100 µM | GI50 [54]: 0.609 µM | TGI [54]: 0.356 µM and 0.371 µM | TGI [39]: > 100 µM and 50 µM | TGI [41]: > 100 µM and 50 µM
